How the values were obtained:
TAC-stressed hearts = assay: TAC pressure-overload cardiac hypertrophy in mice treated with thiostrepton; format: in vivo
Description: (§1) FoxM1 is a transcription factor that regulates the expression of genes associated with pathological hypertrophy. […] However, FoxM1 mRNA increased by 8.4-fold in TAC-stressed hearts (FIG. 6A), and the protein was present in the nuclei of both myocytes and endothelial cells of stressed hearts (FIGS. 6B and 6C). Because of the stress-induced endothelial expression of FoxM1, it was evaluated if FoxM1 cooperated with Brg1 to regulate Ace and Ace2 expression. The necessity of FoxM1 activation for cardiac hypertrophy by using FoxM1 inhibitor thiostrepton to inhibit FoxM1 in TAC-stressed hearts was tested. Within 4 weeks after TAC, the control mice injected with DMSO developed severe cardiac hypertrophy with increased ventricle-body weight ratio, interstitial fibrosis, and cardiac dysfunction with reduced left ventricular fractional shortening (FS) (FIGS. 6D, 6E, and 6G). […] Collectively, these findings indicate that FoxM1 activation by stress is necessary for cardiac myopathy and for stress-induced changes of Ace and Ace2.

Ace and Ace2 = assay: Western blot analysis of Ace and Ace2 in heart ventricles of thiostrepton treated mice after TAC; format: in vivo; conditions: 2 weeks after TAC
Description: as §1

Ace and Ace2 promoter = assay: Luciferase reporter assays of Ace and Ace2 proximal promoters in mouse cardiac endothelial cells; format: cell-based; conditions: MCEC cells
Description: The transcriptional activity of Brg1 on the Ace and Ace2 promoters was also tested. 3.1 kb of Ace upstream promoter (−2983 bp to +174 bp) and 7.8 Kb of Ace2 upstream promoter (−7063 bp to +786 bp) were cloned into the episomal reporter pREP4 that undergoes chromatinization in mammalian cells. The reporter constructs and Brg1-expressing plasmid were transfected into mouse cardiac endothelial cells. In these cells, Brg1 caused a 1.7-fold increase in Ace promoter activity and 59% reduction in Ace2 promoter activity (FIG. 5P). Combined with the ChIP results, these reporter studies indicate that Brg1 activates Ace promoter and represses Ace2 promoter, providing a mechanism for the antithetical changes of Ace and Ace2 in stressed hearts.
Inhibition of FoxM1 by thiostrepton eliminated the ability of Brg to activate Ace and repress Ace2 promoter (FIGS. 10F and 10G).

C=C(NC(=O)C(=C)NC(=O)c1csc(C2=N[C@@H]3c4csc(n4)[C@H]4NC(=O)c5csc(n5)[C@H]([C@](C)(O)[C@@H](C)O)NC(=O)[C@H]5CSC(=N5)/C(=C/C)NC(=O)[C@H]([C@@H](C)O)NC(=O)c5csc(n5)[C@]3(CC2)NC(=O)[C@H](C)NC(=O)C(=C)NC(=O)[C@H](C)NC(=O)[C@H]([C@@H](C)CC)N[C@@H]2C=Cc3c([C@H](C)O)cc(nc3[C@H]2O)C(=O)O[C@@H]4C)n1)C(N)=O [thiostrepton]
improvement of left ventricular fractional shortening (FS) (TAC-stressed hearts; 4 weeks after TAC, echocardiography, vs DMSO control): 28%
reduction of hypertrophy (ventricle-body weight ratio) (TAC-stressed hearts; 4 weeks after TAC, vs DMSO control): ~50%
cardiac dysfunction (TAC-stressed hearts; within 4 weeks after TAC): lesser degree of cardiac dysfunction
interstitial fibrosis (TAC-stressed hearts; within 4 weeks after TAC, trichrome staining): mild interstitial fibrosis
cardiac hypertrophy (TAC-stressed hearts; within 4 weeks after TAC, vs DMSO control): mild cardiac hypertrophy
TAC-induced changes of Ace and Ace2 (Ace and Ace2; Western blot of heart ventricles): abolished
reduction of Ace/Ace2 ratio in stressed hearts (Ace and Ace2; Western blot quantitation): 6.53 fold
ability of Brg to activate Ace and repress Ace2 promoter (Ace and Ace2 promoter): eliminated

Source: patent US20200164025A1, “AN[…] E[…] AND ACE2 BY BRG1-FOXM1 COMPLEX UNDERLIES PA[…] HYPERTROPHY” (INDIANA UNIVERSITY RESEARCH AND TECHNOLOGY CORPORATION, priority 2014, published 2020)
